Measurements as given in PMC10800708, “Efficacies and ADME properties of redox active methylene blue and phenoxazine analogues for use in new antimalarial triple drug combinations with amino-artemisinins” (Frontiers in Pharmacology, 2024).
Read-outs that look alike come from different tables or passages of the source.

Assays:
[1] = Kinetic solubility in PBS; format: physicochemical; conditions: phosphate buffer saline (PBS), aqueous buffer, kinetic from dmso stock
Experimental: . […] The aqueous mobile phase was water with 0.1% formic acid and the organic mobile phase was acetonitrile with 0.1% formic acid. The gradient method has a flow rate of 0.8 mL/min, with a total run time of 2.5 min starting at 5% organic and increasing to 95% at 1.4 min, holding for 40 s before returning to 5% to re-equilibrate the column. • ii. Lipophilicity. Stock solutions (10 mM) of compounds were diluted to 100 μM in 96-well deep-well plate containing 300 µL of 1-octanol and 300 µL of phosphate buffer at pH 7.4. The plate was agitated on an orbital shaker at 750 rpm for 2 h. The organic and buffer layers of each well were transferred separately to a new analysis plate. The samples were analysed with the HPLC diode array detection as described for kinetic solubility. Samples from both layers were analysed to determine LogD7.4 values. • iii. Passive permeability. A parallel artificial membrane permeation assay (PAMPA) was used to assess the passive permeability of compounds with a 96-well MultiScreen filter plate ([…] pore size, Millipore). The filter plate was precoated with 5% hexadecane in hexane. Stock solutions of compounds were diluted to 1 mM in a donor buffer (pH 6.5). Lucifer yellow was added to the apical wells of the precoated MultiScreen plate containing compound donor solution. The donor buffer solutions were spiked with each test compound (1 mM). The acceptor-buffer solution was prepared by adding 10 μL DMSO to 990 μL acceptor buffer (pH 7.4) and 250 μL were added to the basolateral (acceptor) wells. The donor plate was carefully inserted into the acceptor plate and incubated at room temperature for 4 h. After the incubation period, 50 μL of samples from the acceptor plate were transferred to a round bottom 96-well plate, together with 30 μL of donor buffer for matrix matching. Theoretical equilibrium samples for each test compound were prepared by adding 150 μL of donor solutions to 250 μL acceptor solutions and left at room temperature. These theoretical equilibrium samples represent complete transfer of the compound into the donor well. For the theoretical equilibrium samples, 80 μL were added to the analysis plate. Lastly, 160 μL of the internal standard carbamazepine (0.1 μM) was added to all acceptor and equilibrium samples. A portion of the sample containing Lucifer yellow was analyzed on a BioRad iMarkTM Microplate Absorbance Reader (BioRad, Hercules, CA, United States; […]. Samples were analysed using reverse phase Gemini NX-C18 column (5 μm, 2.1 mm × 50 mm) with a Shimadzu HPLC coupled with an AB Sciex 3200 Q TRAP MS). […]. Plasma stability. Stock solutions of compounds in DMSO (10 mM) were used to spike pooled human plasma. 90 μL of each sample was transferred in duplicate to 6 different wells of a 96-deep well plate. An aliquot of each sample was immediately quenched with ice cold acetonitrile containing the internal standard carbamazepine (0.1 µM), after which the plate was incubated in a water bath (37°C for […]). Aliquots of samples were removed at 5, 15, 40, 60 and 180 min and quenched with ice cold acetonitrile. After samples of the final time point were precipitated, the supernatant was transferred to a round bottom 96-well plate for analysis by LC-MS/MS using a reverse phase Gemini NX-C18 column (5 μm, 2.1 mm × 50 mm) with a Shimadzu HPLC coupled with an AB Sciex 3200 Q TRAP MS) operated at unit resolution in the multiple reaction monitoring (MRM) mode. The aqueous phase consisted of water with 0.1% formic acid and the organic mobile phase consisted of methanol and acetonitrile (1:1, (v/v)) with 0.1% formic acid. […]. The peak area ratios were used to calculate the amount of parent compound remaining and t1/2 in plasma, using the following equations.

[2] = Plasma protein binding, ultracentrifugation; format: in vitro ADME; conditions: pooled human plasma
Experimental: Plasma protein binding. Plasma protein binding was determined in pooled human plasma using an ultracentrifugation method. Stock solutions of test compounds (10 mM) were diluted in phosphate buffer and spiked into plasma in deep well 96-well plates (10 µM). An aliquot of each compound was immediately precipitated with ice cold acetonitrile containing the internal standard carbamazepine (0.1 μM). These served as total concentration samples. After incubation in a water bath at 37°C for 1 h, the samples were transferred to ultracentrifuge tubes in duplicate and centrifuged for 4 h at 37°C and 30,000 g (Optima L-80XP, Beckman). Following centrifugation, the supernatant was transferred to the plate containing the total concentration samples and precipitated with ice cold acetonitrile containing the internal standard. Analyte concentrations of all compounds were determined via LC-MS/MS (reverse phase Gemini NX-C18 column and Shimadzu HPLC coupled with an AB Sciex 3200 Q TRAP MS) as described above. • vi.

[3] = PBS pH 2, read-out: Predicted solubility pH 2
[4] = PBS pH 6.5, read-out: Predicted solubility pH 6.5
[5] = PBS pH 7.4, read-out: Predicted solubility pH 7.4

SMILES | solubility at 2 h [1, 3] [µM] | solubility at 2 h [1, 4] [µM] | solubility at 2 h [1, 5] [µM] | fraction unbound at 1 h, 10 µM [2]
CCN(CC)c1ccc2nc3ccc(=[N+](CC)CC)cc-3sc2c1 [AD01] | > 150 | > 150 | > 150 | 
CCN(CC)c1ccc2nc3c4ccccc4/c(=N\c4ccccn4)cc-3oc2c1 [PhX6] | > 150 | < 5 | < 5 | 0.1
